Where “and” joins values, the source holds several entries; their conditions need not be identical. Equal entries are not always repeated.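 Cells were grown in 96-well plates and exposed to each compound for 48 hours at five concentrations; endpoints were interpolated linearly between bracketing concentrations, or set to the highest concentration if not reached. GI50 = concentration required for 50% inhibition of growth. Definition used: TGI = concentration required for complete inhibition of growth.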
Key:
Experiment in all cases: inhibition of tumour cell growth, NCI panel, 48 h
MALME-3M melanoma = system: MALME-3M melanoma
HOP-62 NSCLC = system: HOP-62 NSCLC
HCT-116 colon = system: HCT-116 colon
NCI-H522 lung = system: NCI-H522 lung
SK-MEL-28 melanoma = system: SK-MEL-28 melanoma
SF-268 CNS = system: SF-268 CNS
A498 renal = system: A498 renal
SF-295 CNS = system: SF-295 CNS
ACHN renal = system: ACHN renal
CCRF-CEM leukemia = system: CCRF-CEM leukemia

SMILES | TGI (MALME-3M melanoma) [µM] | TGI (HOP-62 NSCLC) | TGI (HCT-116 colon) [µM] | TGI (NCI-H522 lung) [µM] | TGI (SK-MEL-28 melanoma) | TGI (SF-268 CNS) [µM] | TGI (A498 renal) | TGI (SF-295 CNS) [µM] | TGI (ACHN renal) [µM] | TGI (CCRF-CEM leukemia) [µM] | GI50 (MALME-3M melanoma) [µM] | GI50 (HOP-62 NSCLC) | GI50 (HCT-116 colon) [µM] | GI50 (NCI-H522 lung) [µM] | GI50 (SK-MEL-28 melanoma) | GI50 (SF-268 CNS) [µM] | GI50 (A498 renal) | GI50 (CCRF-CEM leukemia) [µM] | GI50 (ACHN renal) | GI50 (SF-295 CNS) [µM]
CC1CCCC2(CC[N+](C)(CCC[N+](C)(C)C)CC2)C1 (stereo unspecified) | > 100 | > 100 µM | > 100 | > 100 | > 100 µM | > 100 | > 100 µM | > 100 | > 100 | – | – | – | – | – | – | – | – | – | – | –
C/C(=N/NC(=S)N1CCCCC1)c1ccccc1O | > 31.6 | > 100 µM | – | > 31.6 | > 31.6 µM | > 31.6 | > 100 µM | > 31.6 | > 31.6 | > 31.6 | – | – | – | – | – | – | – | – | – | –
O=S(Nc1ccccc1)c1ccc(N2CCOCC2)cc1 (stereo unspecified) | > 100 | > 100 µM | > 100 | > 100 | > 100 µM | > 100 | – | > 100 | > 100 | > 100 | – | – | – | – | – | – | – | – | – | –
CCOc1ccc(N/C(=C(/C(Cl)=C(/Cl)N(CC)CC)[N+](=O)[O-])n2nnc3ccccc32)cc1 | 39 | > 100 µM | 30.4 | – | 41.4 µM | 36.2 | 73.5 µM | > 100 | 47.9 | > 100 | – | – | – | – | – | – | – | – | – | –
CCOP(=O)(/C=C\n1cc(C)c(=O)[nH]c1=O)OCC | – | > 100 µM | > 100 | > 100 | > 100 µM | > 100 | > 100 µM | > 100 | > 100 | > 100 | – | – | – | – | – | – | – | – | – | –
ClCCCc1ccccc1C1=NCCc2ccccc21 | – | > 100 µM | > 100 | > 100 | > 100 µM | > 100 | > 100 µM | > 100 | > 100 | > 100 | – | – | – | – | – | – | – | – | – | –
CCNCCCn1c2c(c3ccc(Cl)cc3c1=O)C(=O)c1cc(OC)cnc1-2 | 3.12 | 1.43 µM | 1.56 | 24.5 | 4.54 µM | 2.04 | 4.38 µM | – | 1.35 | 1.75 | 1.37 | 0.122 µM | 0.203 | 0.263 | 1.92 µM | 0.33 | 0.358 µM | 0.0239 | 0.154 µM | –
O=C1NC(Nc2ccccc2)=NC(C(F)(F)F)(C(F)(F)F)N1 | > 100 | > 100 µM | > 100 | – | > 100 µM | > 100 | – | > 100 | > 100 | > 100 | – | – | – | – | – | – | – | – | – | –
[Cl][Sn]([c]1ccccc1)([c]1ccccc1)[c]1ccccc1 | – | 0.467 µM and 0.188 µM and 0.287 µM | – | – | 0.414 µM and 0.146 µM and 0.0808 µM | – | 0.523 µM and 0.159 µM | – | – | 0.156 | – | 0.21 µM and 0.0575 µM and 0.132 µM | – | – | 0.196 µM and 0.0263 µM and 0.0229 µM | – | 0.165 µM and 0.0456 µM | 0.029 | 0.213 µM and 0.034 µM and 0.0215 µM | –
CCOC(=O)CCC(NC(=O)OCc1ccccc1)C(=O)NC(CCC(=O)OCC)C(=O)NC(CCC(=O)OCC)C(=O)NC(CCC(=O)OCC)C(=O)NC(CCC(=O)OCC)C(=O)NC(CCC(=O)OCC)C(=O)NC(CCC(=O)OCC)C(=O)OCC (stereo unspecified) | > 100 | > 100 µM | > 100 | > 100 | > 100 µM | > 100 | > 100 µM | – | > 100 | > 100 | – | – | – | – | – | – | – | – | – | –
CC1(C)N/C(=C\C=O)C(C)(C)N1O | > 100 | > 100 µM | > 100 | – | > 100 µM | > 100 | – | > 100 | > 100 | > 100 | – | – | – | – | – | – | – | – | – | –
O=C1C(Cl)=C(OCCCl)C(=O)c2c(O)ccc(O)c21 | 7.53 | 30.4 µM | 2.97 | – | 12.5 µM | 17.1 | 34.8 µM | 33.3 | 10.4 | 0.381 | – | – | – | – | – | – | – | – | – | –
CC(=O)OCC1OC(SC2=N/C(=C\c3ccc(Br)s3)C(=O)N2CN2CCOCC2)C(OC(C)=O)C(OC(C)=O)C1OC(C)=O (stereo unspecified) | 35.6 | 56.6 µM | 28.3 | 23.6 | 32.9 µM | 81.9 | 46 µM | 52 | 46.2 | – | – | – | – | – | – | – | – | – | – | –
CSCCC(N)C(=O)NCCNc1ccc(NCCNC(=O)C(N)CCSC)c2c1C(=O)c1ccccc1C2=O (stereo unspecified) | 6.6 | 5.22 µM | 2.16 | 1.3 | 3.17 µM | 4.55 | 3.83 µM | 10.7 | 5.45 | – | – | – | – | – | – | – | – | – | – | –
CC1(C)CC(O)C(C)(C)[C@@H](O)C1 (stereo partly specified) | > 100 | > 100 µM | > 100 | > 100 | > 100 µM | > 100 | – | > 100 | > 100 | > 100 | – | – | – | – | – | – | – | – | – | –
CC(=O)Oc1cc2c(cc1OC(C)=O)OCC(c1ccc(C)cc1)C2 (stereo unspecified) | 32 | 44.4 µM | 41.5 | 6.86 | 39.3 µM | 34.2 | 15.3 µM | 76.3 | – | 26.8 | – | – | – | – | – | – | – | – | – | –
Cc1cc(C)nc(SC2=C(Nc3ccc(C)c(Cl)c3)C(=O)N(Cc3ccccc3)C2=O)n1 | > 160 | > 160 µM | > 160 | > 160 | > 160 µM | > 160 | > 160 µM | – | > 160 | – | > 160 | 1.35 µM | > 160 | > 160 | > 160 µM | > 160 | > 160 µM | – | > 160 µM | –
Cc1ccc(S(=O)(=O)n2c3ccc(Br)cc3c3nc4ccccc4nc32)cc1 | – | > 100 µM | > 100 | > 100 | > 100 µM | > 100 | > 100 µM | > 100 | > 100 | > 100 | – | – | – | – | – | – | – | – | – | –
O=C(N/N=C/C=C/c1ccc([N+](=O)[O-])o1)c1cc2ccccc2cc1O | 3.4 | 10.6 µM | 1.4 | 2.72 | 2.4 µM | 7.43 | 8.95 µM | 21.2 | 9.39 | – | 1.5 | 3.27 µM | 0.326 | 0.486 | 0.697 µM | 1.43 | 2.48 µM | – | 1.26 µM | 3.37
CN(C)C(=O)OC1C(=O)N(C)c2ccc(Cl)cc2C2(c3ccccc3)N1C2(Cl)Cl (stereo unspecified) | > 100 | > 100 µM | > 100 | > 100 | > 100 µM | > 100 | – | > 100 | > 100 | > 100 | – | – | – | – | – | – | – | – | – | –
CO/N=C1\CC(NC(=O)CNC(=O)OC(C)(C)C)c2ccsc21 (stereo unspecified) | > 100 | > 100 µM | > 100 | – | > 100 µM | > 100 | > 100 µM | > 100 | – | > 100 | – | – | – | – | – | – | – | – | – | –

From PubChem BioAssay (NCI)
